Test: mn = molality of the nth substance listed, in mol/kg
Details: 100 kPa, Liquid; for speed of sound: Frequency=3 MHz, Sing-around technique in a fixed-path interferometer; for mass density: Vibrating tube method

O=S(=O)([O-])C(F)(F)F.O=S(=O)([O-])C(F)(F)F.[Sr+2] [strontium trifluoromethanesulfonate] + CC(=O)N(C)C
Details | mass density, 298.15 K [kg/m3] | mass density, 303.15 K [kg/m3] | mass density, 308.15 K [kg/m3] | mass density, 313.15 K [kg/m3] | mass density, 318.15 K [kg/m3] | speed of sound, 298.15 K [m/s] | speed of sound, 303.15 K [m/s] | speed of sound, 308.15 K [m/s] | speed of sound, 313.15 K [m/s] | speed of sound, 318.15 K [m/s]
m1 = 0.009611 | 938.686 | 934.078 | 929.46 | 924.833 | 920.199 | 1456.3 | 1436.5 | 1416.7 | 1397 | 1377.5
m1 = 0.01616 | 940.308 | 935.702 | 931.087 | 926.462 | 921.831 | 1456.5 | 1436.8 | 1417 | 1397.3 | 1377.8
m1 = 0.02452 | 942.361 | 937.757 | 933.142 | 928.518 | 923.888 | 1456.8 | 1437.1 | 1417.4 | 1397.8 | 1378.3
m1 = 0.0346 | 944.817 | 940.215 | 935.603 | 930.982 | 926.353 | 1456.9 | 1437.2 | 1417.5 | 1398 | 1378.6
m1 = 0.04877 | 948.237 | 943.637 | 939.026 | 934.407 | 929.78 | 1457.1 | 1437.5 | 1418 | 1398.6 | 1379.2
m1 = 0.06177 | 951.363 | 946.763 | 942.151 | 937.533 | 932.906 | 1457.3 | 1437.8 | 1418.3 | 1398.9 | 1379.7
m1 = 0.07813 | 955.261 | 950.663 | 946.052 | 941.432 | 936.806 | 1457.5 | 1438.1 | 1418.7 | 1399.3 | 1380.1
m1 = 0.09814 | 960.007 | 955.407 | 950.795 | 946.177 | 941.551 | 1457.7 | 1438.4 | 1419.1 | 1399.8 | 1380.7
m1 = 0.1176 | 964.581 | 959.98 | 955.367 | 950.748 | 946.121 | 1458 | 1438.8 | 1419.5 | 1400.3 | 1381.3
m1 = 0.1476 | 971.566 | 966.955 | 962.34 | 957.717 | 953.091 | 1458.3 | 1439 | 1419.8 | 1400.8 | 1381.8

— the NIST ThermoML archive (doi:10.1016/j.jct.2015.08.033)
